# Reference: US6989245B2, “Screening, diagnostic and therapeutic methods relating to RIZ” (The Burnham Institute, priority 2001, dated 2006)
# Columns and labels:
# [1] = target: protein methyltransferase (PMT); conditions: universal inhibitor of PMT; cited from earlier work
# RIZ1 methyltransferase = target: T1, RIZ1 methyltransferase (Homo sapiens, UniProt Q13029, DUP703-703); assay: in vitro methylation of histones by immunoprecipitated RIZ1; type: biochemical; conditions: 0.42 μM of 3H-SAM
# T1 construct: Enzyme activity of full-length RIZ1 protein from mammalian cells was next assayed; expressed in transfected cells; host or cells: U2OS human osteosarcoma cells infected with AdRIZ1 adenovirus
# Description: (§1) Methylation reactions (30-40 μl) contained 20 mM Tris-HCl (pH8.0), 0.2 M NaCl, 0.4 mM EDTA, affinity-purified GST-RIZ1 or immunoprecipitation products, free histones (20-40 μg) purified from acid extraction of human cancer cells (A549 or U2OS), and 3 μl (1.65 μCi and 21 pmole)[methyl-^3H]-adenosyl-methionine (Amersham-Pharmacia). Nuclear extracts were prepared according to standard procedures and used for immunoprecipitation. Antisera used for immunoprecipitation were anti-KG7.1S and preimmune serum as described previously (Buyse et al., Proc. Natl. Acad. Sci. U.S.A. 92:4467-4471 (1995)). Similar HMT activity has also been observed with immunoprecipitates using a different serum (data not shown), 1715, which was described previously (Steele-Perkins et al., Genes Dev. 15:2250-2262 (2001)). Various amount of SAH (Sigma) were added in some methylation reactions.
# In view of RIZ1's role in tumor suppression, it was determined whether S-adenosylhomocysteine (SAH), an analog inhibitor of SAM-dependent methyltransferases whose abnormal accumulation is linked with carcinogenesis, can inhibit RIZ1 enzyme activities. The effect of SAH on the in vitro methylation of histones by immunoprecipitated RIZ1 was tested. A methylation assay was performed in the presence of 0, 0.5 and 5 μM of SAH and 0.42 μM of 3H-SAM.
# RIZ1 HMT activity [2] = assay: HMT activity of RIZ1 immunoprecipitates from TPA treated U937 cells; type: cell-based, human; conditions: 24 hr following TPA treatment
# Description: as §1
# To further study the contrasting behavior of H1 and H3 methylation, regulation of RIZ1 HMT activity by cell growth was examined, using 12-O-tetradecanoyl-phorbol-13-acetate (TPA) treatment of U937 myeloid leukemic cells as a model system. U937 cells undergo growth arrest and terminal differentiation into monocytes when exposed to TPA. This cell model was selected for study because it has been shown in these cells that RIZ gene expression is only marginally regulated by TPA. […]
# RIZ1 HMT activity [3] = assay: HMT activity of RIZ1 immunoprecipitated from E2 treated MCF-7 cells; type: cell-based, human; conditions: RIZ1 immunoprecipitates
# Description: as §1
# To help understand this apparent paradox, the estrogen effects on RIZ1 HMT activity were examined. Nuclear extracts from control and E2 treated MCF-7 cells were immunoprecipitated by RIZ1 serum anti-KG7.1S or preimmune serum. As expected, HMT activity (labeling of H3 and H1) was detected in the immunoprecipitates of RIZ1 serum but not preimmune serum (FIG. 7A, lanes 1 and 3). […] Thus, E2 appears to regulate RIZ1 HMT activity in a selective way, inhibiting specifically methylation of H3 but not H1.
# [4] = test system: progesterone receptor gene expression in luminal epithelial cells of the uterus; assay: E2 regulation of uterine progesterone receptor expression (immunohistochemistry); type: in vivo, mice
# Description: For RIZ staining, the RIZ rabbit antiserum KG7.1S (Buyse et al., Proc. Natl. Acad. Sci. U.S.A. 92:4467-4471 (1995)) was used at an optimal dilution of 1/200. For ERα staining the polyclonal rabbit anti-ERα antibody (sc-542 Santa Cruz) was used at a dilution of 1/250, and for PR staining the polyclonal rabbit anti-PR antibody (A0098 DAKO) was used at a dilution of 1/100, essentially as described (Tibbetts et al., Biol. Reprod. 59:1143-1152 (1998)). Tissues were fixed in Bouin's solution and processed by routine methods for embeddement in paraffin and sectioning (5 μm). […]
# To investigate E2-mediated increments in proliferation and hyperemia of uteri and changes in the cellular organization of the vaginal epithelium (Xu et al., Science 279:1922-1925 (1998)), 8-week old female RIZ−/− and RIZ+/+mice were ovariectomized (OVXed). […] The mice were then sacrificed at day 18 and the uterine wet weight was measured, and vaginal tissue was collected. […] The thickness of the vaginal epithelium and the cornified layer was photographed and measured as described in FIG. 4 using the Spot 3.2.4. software (Diagnostic Instruments).
# The epithelial and stromal compartments of the uterus were then analyzed for E2-induced changes in progesterone receptor expression. […]
# uterus of OVXed mice = assay: uterine growth in response to E2 in ovariectomized (OVXed) mice; type: in vivo; conditions: E2 0.8 ng/g/day S.C. three days
# Description: To investigate E2-mediated increments in proliferation and hyperemia of uteri and changes in the cellular organization of the vaginal epithelium (Xu et al., Science 279:1922-1925 (1998)), 8-week old female RIZ−/− and RIZ+/+mice were ovariectomized (OVXed). At day 15-17 following OVX, mice were treated with S.C. injections of E2 (0.8 ng/g/day; Sigma) or with the vehicle (0.1 ml corn oil) alone for three days. The mice were then sacrificed at day 18 and the uterine wet weight was measured, and vaginal tissue was collected. The tissues were processed as above and vaginal specimens were stained with routine H & E and uterine specimens for PR expression. The thickness of the vaginal epithelium and the cornified layer was photographed and measured as described in FIG. 4 using the Spot 3.2.4. software (Diagnostic Instruments).
# The RIZ1 mutant mice are deficient in RIZ1, but not RIZ2, and therefore lack specifically any PR-domain related functions of the gene (Steele-Perkins et al., Genes Dev. 15:2250-2262 (2001)). These animals are viable and fertile and show no gross developmental defects (Steele-Perkins et al., supra (2001)). To determine the physiological role of RIZ1 in steroid hormone action, uterine growth in response to E2 was first examined in ovariectomized (OVXed) mice (Lubahn et al., Proc. Natl. Acad. Sci. USA 90:11162-11166 (1993)). Wild-type or heterozygous RIZ1 mutant mice responded to E2 treatment with a 5.3±0.5 and 5.4±0.4 fold increase in uterine wet weight. […] Uterine response to mechanical traumatization (decidual stimulation) is mainly a progesterone receptor-dependent process (Lydon et al., Genes Dev. 9:2266-2278 (1995)). OVXed mice were treated with a high dose of progesterone and a low dose of E2, followed by mechanical stimulation of the left uterine horn of each animal. The unstimulated […] uterine horn served as a control.
# [5] = test system: histone H1 phosphorylation in MCF7 cells; assay: H1 phosphorylation in MCF7 cells by western blot; type: cell-based, human; conditions: E2 48 hr
# Description: MCF-7 and T47-D breast cancer cells were grown in 15 cm dishes in DMEM with 5% FCS, and 2 mM L-glutamine. Subconfluent cells (4×10^6) were then cultured in DMEM without phenol red, serum or hormones for an additional 3 days, during which media was changed twice daily. Cells were incubated for 24 h with or without hormones (50 nM for E2 and 100 nM for R5020) and infected with an adenovirus vector containing RIZ1 (AdRIZ1; at a concentration of 1×10^10 viral particles/15 cm dish) or the empty vector (AdNull) (He et al., Cancer Res. 58:4238-4244 (1998)). Cells were then grown for an additional 48 h in DMEM without phenol red supplemented with 5% charcoal-treated FCS (Omega Scientific). Cells were harvested and proceeded to immunoprecipitation and immunoblot essentially as described (Buyse et al., Proc. Natl. Acad. Sci. U.S.A. 92:4467-4471 (1995); Liu et al., J. Biol. Chem. 272:2984-2991 (1997)). […]
# Because H1 phosphorylation has been linked with transcriptional activation (Bhattacharjee et al., Mol. Cell. Biol. 21:5417-5425 (2001); Dou and Gorovsky, Mol. Cell. 6:225-231 (2000)), it was next asked whether E2 or RIZ1 can enhance H1 phosphorylation. Histones were extracted from MCF7 cells infected with AdRIZ1 or control virus and analyzed by western blot analysis using antibodies that recognize specifically phosphorylated H1.
# [6] = test system: prostate of orchiectomized male mice; assay: prostate growth in orchiectomized male mice treated with testosterone; type: in vivo; conditions: testosterone 3 mg/kg/day S.C. 7 days
# Description: In order to evaluate the response to testosterone, twelve week old male mice were orchiectomized (ORCed) and testicles were wet weighed (Xu et al., Science 279:1922-1925 (1998)). Nine days following ORC, mice were treated during days 9-15 with S.C. injections of testosterone (3 mg/kg/day, Sigma) or vehicle alone (0.1 ml corn oil). On day 16, mice were sacrificed and the prostate and the pars prostate of the urethra (for technical reasons) were removed and wet weighed.
# Eight days after orchiectomization, prostates in both wild-type and mutant animals regressed. Injection of testosterone for 7 days stimulated prostate growth in wild-type animals as well as in RIZ1 null animals. Wild-type and RIZ1 null mutant animals had similar ratios of the weight of prostate and urethra to body weight (1.19±0.03 vs. 1.14±0.03; n=10 and 9 mice for +/+ and −/−, respectively; p=0.23). They also had similar ratios of testis weight to body weight (7.7±0.4 vs. 7.4±0.4; n=14 for both genotypes; p=0.58).
# T1 sequence (Q13029 with tags, fused parts or gaps DUP703-703): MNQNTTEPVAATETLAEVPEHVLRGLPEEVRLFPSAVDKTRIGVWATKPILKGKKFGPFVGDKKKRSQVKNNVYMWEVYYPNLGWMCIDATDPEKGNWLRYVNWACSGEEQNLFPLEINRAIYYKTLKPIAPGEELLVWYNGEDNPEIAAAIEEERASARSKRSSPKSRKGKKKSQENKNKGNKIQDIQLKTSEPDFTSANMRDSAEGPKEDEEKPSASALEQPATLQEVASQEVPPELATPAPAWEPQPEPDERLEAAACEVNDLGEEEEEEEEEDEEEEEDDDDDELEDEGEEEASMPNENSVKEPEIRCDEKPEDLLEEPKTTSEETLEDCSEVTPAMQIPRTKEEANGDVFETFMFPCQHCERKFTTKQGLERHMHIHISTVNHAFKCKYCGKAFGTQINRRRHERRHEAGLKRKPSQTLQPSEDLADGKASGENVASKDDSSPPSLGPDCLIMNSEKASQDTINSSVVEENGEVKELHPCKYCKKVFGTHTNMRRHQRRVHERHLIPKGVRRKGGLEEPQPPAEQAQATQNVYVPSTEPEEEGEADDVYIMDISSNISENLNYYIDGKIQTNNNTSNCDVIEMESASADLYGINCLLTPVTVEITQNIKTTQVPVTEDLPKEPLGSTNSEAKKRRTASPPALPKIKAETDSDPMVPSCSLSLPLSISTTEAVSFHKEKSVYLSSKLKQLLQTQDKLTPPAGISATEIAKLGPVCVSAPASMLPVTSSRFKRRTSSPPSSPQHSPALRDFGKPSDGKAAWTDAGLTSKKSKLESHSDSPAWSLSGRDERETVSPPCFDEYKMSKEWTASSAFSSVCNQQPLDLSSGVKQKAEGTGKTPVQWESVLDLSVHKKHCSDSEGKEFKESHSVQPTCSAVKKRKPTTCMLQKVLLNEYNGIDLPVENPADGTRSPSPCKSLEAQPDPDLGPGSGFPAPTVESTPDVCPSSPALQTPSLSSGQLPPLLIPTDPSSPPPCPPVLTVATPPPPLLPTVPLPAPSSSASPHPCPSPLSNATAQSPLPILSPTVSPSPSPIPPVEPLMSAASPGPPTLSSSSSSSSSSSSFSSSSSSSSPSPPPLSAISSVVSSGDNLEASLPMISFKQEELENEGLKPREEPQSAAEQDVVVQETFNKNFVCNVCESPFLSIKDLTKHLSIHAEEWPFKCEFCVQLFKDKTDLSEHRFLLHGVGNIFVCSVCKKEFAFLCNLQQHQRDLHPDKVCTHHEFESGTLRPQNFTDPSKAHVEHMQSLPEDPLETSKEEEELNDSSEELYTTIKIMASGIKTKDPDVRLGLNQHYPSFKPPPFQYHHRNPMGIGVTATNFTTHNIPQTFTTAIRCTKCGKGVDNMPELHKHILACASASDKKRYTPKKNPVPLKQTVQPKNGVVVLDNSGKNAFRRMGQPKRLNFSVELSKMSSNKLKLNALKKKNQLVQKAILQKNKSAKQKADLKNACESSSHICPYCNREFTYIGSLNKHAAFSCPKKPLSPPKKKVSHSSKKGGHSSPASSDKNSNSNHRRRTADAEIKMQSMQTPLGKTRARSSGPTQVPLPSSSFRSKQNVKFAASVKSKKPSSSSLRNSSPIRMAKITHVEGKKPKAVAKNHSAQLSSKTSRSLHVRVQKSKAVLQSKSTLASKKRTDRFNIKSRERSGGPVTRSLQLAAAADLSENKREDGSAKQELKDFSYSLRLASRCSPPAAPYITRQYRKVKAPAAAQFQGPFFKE
smiles,measurement,setting,value
"Nc1ncnc2c1ncn2[C@@H]1O[C@H](CSCC[C@H](N)C(=O)O)[C@@H](O)[C@H]1O [SAH, S-adenosylhomocysteine]",Ki,[1],5 to 12 µM
same,Histone methylation by RIZ1,RIZ1 methyltransferase; 0.5 μM of SAH,partially inhibited
same,Histone methylation by RIZ1,RIZ1 methyltransferase; 5 μM of SAH,completely inhibited
"CCCCCCCCCCCCCC(=O)O[C@@H]1[C@@H](C)[C@@]2(O)[C@@H](C=C(CO)C[C@]3(O)C(=O)C(C)=C[C@@H]23)[C@@H]2C(C)(C)[C@]12OC(C)=O [TPA, 12-O-tetradecanoyl-phorbol-13-acetate]",H1 methylation by RIZ1,RIZ1 HMT activity [2],slightly decreased
same,H3 methylation by RIZ1,RIZ1 HMT activity [2],increased
"C[C@]12CC[C@@H]3c4ccc(O)cc4CC[C@H]3[C@@H]1CC[C@@H]2O [E2, estradiol]",H1 methylation by RIZ1,RIZ1 HMT activity [3],maintained or slightly enhanced
same,H3 methylation by RIZ1,RIZ1 HMT activity [3],decreased
same,repression of progesterone receptor gene expression,[4]; in the absence of RIZ1,2 fold
same,repression of progesterone receptor gene expression,[4]; in the presence of RIZ1,~20 fold
same,fold increase in uterine wet weight,uterus of OVXed mice; heterozygous RIZ1 mutant OVXed mice,5.4±0.4 fold
same,fold increase in uterine wet weight,uterus of OVXed mice; homozygous RIZ1 mutant OVXed mice,about 3.7±0.4 fold
same,fold increase in uterine wet weight,uterus of OVXed mice; wild-type OVXed mice,5.3±0.5 fold
same,H1 phosphorylation,[5],increased
C[C@]12CC[C@H]3[C@@H](CCC4=CC(=O)CC[C@@]43C)[C@@H]1CC[C@@H]2O [testosterone],ratio of the weight of prostate and urethra to body weight,"[6]; RIZ1 null mutant orchiectomized mice, n=9",1.14±0.03
same,ratio of the weight of prostate and urethra to body weight,"[6]; wild-type orchiectomized mice, n=10",1.19±0.03
